# Measured values: US20250367266A1, “ORAL PHARMACEUTICAL COMPOSITION FOR PREVENTION OR TREATMENT OF OSTEOPOROSIS CONTAINING TERIPARATIDE AND METHOD FOR PREPARATION THEREOF” (ICURE BNP CO., LTD., priority 2022, published 2025)
# Where two headings read alike, the source gives them in different places.
# Experiments:
# [1] = test system: dexamethasone-induced mouse osteoporosis model; experiment: Anti-osteoporotic effect, femur micro-CT and histology; assay type: in vivo, C57BL/6 mice; conditions: 4 weeks
# Experimental: (§1) To determine the anabolic effect of orally administered TRP/LDA/DA-DM on GC-induced osteoporosis, 9-week-old female C57BL/6 mice were randomly divided into 6 groups (n=10 per group): Control group (normal) (SC injection of normal saline once daily); Control group (DEX) (SC injection of 0.022 mg/kg DEX once daily); TRP-SC (0.02) (SC injection of 0.02 mg/kg TRP dissolved in physiological saline containing 0.022 mg/kg DEX once daily); TRP-oral (0.4) (SC injection of 0.022 mg/kg DEX dissolved in water with 0.4 mg/kg TRP orally once daily); RP (1:5:7)-15 (0.4) (once daily oral administration of TRP (1:5:7)-15 equivalent to 0.4 mg/kg TRP with SC injection of 0.022 mg/kg DEX); and TRP (1:5:7)-15 (0.8) (once daily oral administration of TRP (1:5:7)-15 equivalent to 0.8 mg/kg TRP with SC injection of 0.022 mg/kg DEX). Blood samples were collected for biochemical analysis 4 weeks after treatment.
# In addition, femurs from 10 mice in each group were collected and fixed in 4% paraformaldehyde for bone density and histomorphometric analysis. The trabecular bone microstructure of the left femur was investigated using a Quantum GX micro-computed tomography (micro-CT) imaging system (PerkinElmer, Hopkinton, MA, USA) located at the Korea Institute of Basic Science (Gwangju, Korea). X-ray source settings included a voltage of 90 kV and a current of 88 uA, with a field of view of 10 mm (voxel size, 20 μm; scan time, 4 min). Three-dimensional (3D) images were obtained with 3D Viewer, an existing software in Quantum GX, and the resolution was set to 4.5 μm. After scanning, the structural parameters of the trabecular bone were analyzed using Analyze 12.0 software (Analyze Direct, Overland Park, KS, USA).
# For histological observations, formalin-fixed femurs were […] in 10% ethylenediaminetetraacetic acid (EDTA) and dehydrated by passing through a graded ethanol series. Calcified femurs were then embedded in paraffin wax, cut into 5-μm-thick sections, and stained with hematoxylin and eosin (H&E). Histological sections were observed under an optical microscope (Bx41; Olympus, Tokyo, Japan), and photographs were taken focusing on the central portion of the growth plate.
# [2] = test system: dexamethasone-induced mouse osteoporosis model; experiment: Serum bone formation and resorption markers and calcium; assay type: in vivo, C57BL/6 mice
# Experimental: as §1
# After the final treatment once daily, serum samples were collected from mouse whole blood by centrifugation at 2000×g for 20 minutes. Then, the serum levels of osteocalcin, procollagen I N-terminal pro-peptide (PINP), and C-terminal cross-linked telopeptide of type I collagen (CTx) in each sample were determined according to the manufacturer's instructions using the Mouse Osteocalcin ELISA kit (LifeSpan BioSciences, Inc., Seattle, WA, USA), Rat/Mouse PINP EIA kit (Immunodiagnostic Systems Holdings Ltd., Tyne & Wear, UK), and RatLaps™ CTx-I EIA (Immunodiagnostic Systems Holdings Ltd.) was used to confirm each. In addition, the serum calcium level was confirmed through a colorimetric assay at 560 nm (Sigma-Aldrich).
# [3] = Particle size, PDI and zeta potential (dynamic light scattering) and TEM; assay type: physicochemical; conditions: dispersed in deionized water, 25° C.
# Experimental: The characterization of the secondary structure of RP/LDA/DA-DM was confirmed by […] of TRP, TRP-DM, TRP/LDA/DA, and TRP/LDA/DA-DM, using 10 µM of the complex in water at 20° C. Measurements were made in the 180 to 260 nm range on a JASCO spectropolarimeter (Jasco Inc., Easton, MD, USA) using a 10 mm cuvette. All spectra were background-corrected and calculated in units of average residual ellipticity. This represents an average of 10 scan values. The optimized TRP/LDA/DA-DM [i.e., TRP (1:5:7)-15] was also characterized for average particle size, polydispersity index (PDI), and zeta potential using a dynamic light scattering analyzer (Malvern Zetasizer Nano ZS90; Malvern Instruments, Malvern, UK) at 25° C. TRP/LDA/DA-DM was dispersed in deionized water and sonicated for 1 min to minimize multi-scattering effects. In addition, morphological evaluation of the TRP formulation was performed by transmission electron microscopy (TEM). The diluted dispersion was placed on a copper grid, excess fluid was removed using filter paper, and negative staining was performed with a 2% aqueous solution of phosphortungstic acid. The prepared grids were observed by high-resolution TEM (HRTEM; JEM-200; JEOL, Tokyo, Japan).
# [4] = Oral absorption: plasma TRP pharmacokinetics; assay type: in vivo, SD mice; conditions: SD, mouse; for AUC(0-inf) / AUC(0-t) / Cmax / Tmax / half-life: single dose, n=5
# Experimental: The oral absorption of TRP/LDA/DA-DM in mice was evaluated by determining the effectiveness of electrostatic complexes of TRP with LDA and DA and micellar formulations using DM. After fasting overnight, SD mice were orally administered 400 μL of TRP-Oral (1.6) (1.6 mg/kg TRP dissolved in water) or TRP (1:5:7)-15 (1.6) (equivalent to 1.6 mg/kg TRP). In addition, animals were injected subcutaneously with 200 μL of TRP-SC (0.04) (0.04 mg/kg TRP dissolved in physiological saline) to evaluate the relative oral bioavailability. Blood samples (250 μL) were collected in heparinized tubes (lithium heparin) from a cannulated femoral vein at specified time points (0, 0.167, 0.5, 1, 1.5, 2, 3, 4, 6 hours). Finally, plasma was separated by centrifugation (2500×g, 15 min, 4° C.) and stored at […] until analysis.
# The plasma drug concentration of each sample was determined by UPLC-MS/MS. To construct a standard calibration curve, 180 μL of blank plasma was transferred to a tube, and then 10 μL of TRP at concentrations of 100, 50, 25, 10, 5, 2.5, 1, and 0 (blank) ng/ml was added to the blank plasma. To measure plasma drug concentrations after drug administration, 180 μL of mouse plasma samples at different time points were transferred to another tube, and then 10 μL hPTH (1-38) aqueous solution (100 ng/ml) (as an internal standard [IS]) was added to the TRP and blank plasma or drug-administered plasma samples. The samples were then precipitated by adding 200 μL acetonitrile containing 5% ammonium hydroxide. The precipitated sample was further diluted with 1 mL of water and centrifuged at 4° C. for 15 min at 4,000 rpm. The supernatant was extracted using the solid phase extraction (SPE) method and an Oasis® HLB uElution 96-well plate (Waters Corporation, Milford, MA, USA). Briefly, a 96-well plate was conditioned with 200 μL of methanol and then equilibrated with 200 μL of water. Four 350 μL aliquots of the supernatant were then added to each Oasis HLB uElution well. After the addition of standards or samples, the wells were washed with 200 μL of water containing 5% methanol. Then, TRP and IS were eluted with 25 μL of acetonitrile:water:trifluoroethanol:trifluoroacetic acid (60:34:5:1, v/v/v/v) mixture in two sequential aliquots. After further dilution of the eluate with 50 μL of water, 10 μL was injected into a UPLC system (Waters ACQUITY UPLC, Waters Corporation) equipped with an ACQUITY UPLC Peptide BEH C18 column (2.1×50 mm, 1.7 μm, 300 Å, Waters Corporation). The sample was placed at a low temperature of 6° C., and the column temperature was maintained at 60° C. during the analysis. Mobile phase A is composed of 0.5% (v/v) formic acid in water, and mobile phase B is composed of acetonitrile. TRP and IS were eluted at a gradient flow rate of 0.3 mL/min, where mobile phase A was equal to 85% (initial), 85% (0.8 min), 70% (1.2 min), 70% (2.2 min), 65% (2.7 min), 10% (3.0 min), 10% (4.0 min), 85% (5 min), and 85% (5 min). For ionization, a mass spectrometer (Xevo™ TO-S; Waters Corporation) was used in positive ion multiple reaction monitoring mode with electrospray voltage, source temperature, desolvation temperature, and desolvation gas flow rate of 3.0 kV, 150° C., 500° C., and 800 L/h, respectively. Quantification was performed with the transition of m/z 589.40→656.40 at 45 V cone voltage and 13 eV collision energy for TRP and m/z 744.20→855.50 at 20 V cone voltage and 20 eV collision energy for IS.
# [5] = SC 0.022 mg/kg DEX once daily, 4 weeks
# [6] = SC 0.02 mg/kg TRP once daily, 4 weeks
smiles,measurement,setting,value
"C[C@@H]1C[C@H]2[C@@H]3CCC4=CC(=O)C=C[C@]4(C)[C@@]3(F)[C@@H](O)C[C@]2(C)[C@@]1(O)C(=O)CO [DEX, dexamethasone]",BMD of the total femur,[1]; SC 0.022 mg/kg DEX once daily,123 ± 7.92 mg/mL
same,SMI change compared to the control (normal) group,[1]; SC 0.022 mg/kg DEX once daily,−21.1%
same,Tb.Th change compared to the control (normal) group,[1]; SC 0.022 mg/kg DEX once daily,−7.98%
same,serum CTx increase compared to the control (normal) group,[2]; [5],48.9%
same,serum PINP reduction compared to the control (normal) group,[2]; [5],26.0%
"CCCCCCCCCCCCO[C@@H]1O[C@H](CO)[C@@H](O[C@H]2O[C@H](CO)[C@@H](O)[C@H](O)[C@H]2O)[C@H](O)[C@H]1O [DM, n-dodecyl-β-D-maltoside]",Particle size,[3],7.43 nm
same,Polydispersity index (PDI),[3],0.045
same,Zeta potential,[3],−0.260 mV
"CC[C@H](C)[C@H](NC(=O)[C@H](CCC(=O)O)NC(=O)[C@H](CO)NC(=O)[C@@H](NC(=O)[C@@H](N)CO)C(C)C)C(=O)N[C@@H](CCC(N)=O)C(=O)N[C@@H](CC(C)C)C(=O)N[C@@H](CCSC)C(=O)N[C@@H](Cc1cnc[nH]1)C(=O)N[C@@H](CC(N)=O)C(=O)N[C@@H](CC(C)C)C(=O)NCC(=O)N[C@@H](CCCCN)C(=O)N[C@@H](Cc1cnc[nH]1)C(=O)N[C@@H](CC(C)C)C(=O)N[C@@H](CC(N)=O)C(=O)N[C@@H](CO)C(=O)N[C@@H](CCSC)C(=O)N[C@@H](CCC(=O)O)C(=O)N[C@@H](CCCN=C(N)N)C(=O)N[C@H](C(=O)N[C@@H](CCC(=O)O)C(=O)N[C@@H](Cc1c[nH]c2ccccc12)C(=O)N[C@@H](CC(C)C)C(=O)N[C@@H](CCCN=C(N)N)C(=O)N[C@@H](CCCCN)C(=O)N[C@@H](CCCCN)C(=O)N[C@@H](CC(C)C)C(=O)N[C@@H](CCC(N)=O)C(=O)N[C@@H](CC(=O)O)C(=O)N[C@H](C(=O)N[C@@H](Cc1cnc[nH]1)C(=O)N[C@@H](CC(N)=O)C(=O)N[C@@H](Cc1ccccc1)C(=O)O)C(C)C)C(C)C [TRP, Human PTH (1-34) acetate]","trabecular bone microarchitecture, 3D micro-CT image of the femur","[1]; SC 0.02 or oral 0.4 and 0.8 mg/kg TRP, versus control (DEX) and TRP-Oral (0.4)",denser trabecular bone microarchitecture
same,"trabecular bone, H&E-stained histology of distal femora","[1]; SC 0.02 or oral 0.4 or 0.8 mg/kg TRP, versus control (DEX) and TRP-Oral (0.4)",increased structural integrity and denser trabecular bone microarchitecture
same,BMD higher than the DEX group,[1]; SC 0.02 mg/kg TRP once daily,29.4%
same,BV/TV higher than the control (DEX) group,[1]; SC 0.02 mg/kg TRP once daily,13.2%
same,Tb. Sp lower than the control (DEX) group,[1]; SC 0.02 mg/kg TRP once daily,17.4%
same,Tb.N higher than the control (DEX) group,[1]; SC 0.02 mg/kg TRP once daily,2.8%
same,Tb.Th higher than the control (DEX) group,[1]; SC 0.02 mg/kg TRP once daily,45.2%
same,BMD higher than the control (DEX) group,[1]; oral 0.4 mg/kg TRP once daily,did not produce a significant improvement
same,bioavailability,"[4]; Oral, 1.6 mg/kg TRP, relative to SC 0.04 mg/kg",0.559 ± 0.293%
same,AUC(0-inf),"[4]; Oral, 1.6 mg/kg TRP",0.296 ± 0.0189 ng·h/mL
same,AUC(0-t),"[4]; Oral, 1.6 mg/kg TRP",0.135 ± 0.0704 ng·h/mL
same,Cmax,"[4]; Oral, 1.6 mg/kg TRP",0.155 ± 0.0572 ng/mL
same,Tmax,"[4]; Oral, 1.6 mg/kg TRP",78 ± 16.2 min
same,half-life,"[4]; Oral, 1.6 mg/kg TRP",43.2 ± 10.8 min
same,bioavailability,"[4]; SC, 0.04 mg/kg TRP (reference), read-out: Relative bioavailability",100%
same,AUC(0-inf),"[4]; SC, 0.04 mg/kg TRP",0.752 ± 0.0269 ng·h/mL
same,AUC(0-t),"[4]; SC, 0.04 mg/kg TRP",0.601 ± 0.12 ng·h/mL
same,Cmax,"[4]; SC, 0.04 mg/kg TRP",0.807 ± 0.135 ng/mL
same,Tmax,"[4]; SC, 0.04 mg/kg TRP",30 min
same,half-life,"[4]; SC, 0.04 mg/kg TRP",24 min
same,PINP higher compared to the control (DEX) group,[2]; [6],1.19 times
same,serum osteocalcin level higher than TRP-oral (0.4) group,[2]; [6],9.68%
same,serum osteocalcin level higher than control group (DEX),[2]; [6],28.2%
same,serum osteocalcin level higher than control group (normal),[2]; [6],18.2%
same,"serum calcium levels, maximum increase compared to the control (normal) group","[2]; SC 0.02 mg/kg TRP, at 6 hours, day 28",21.4%
same,PINP secretion increase compared to DEX-treated mice only,"[2]; oral 0.4 mg/kg TRP once daily, 4 weeks",not recovered
